The subject of one assay is HeLa. Put plainly: Cytotoxicity against human HeLa cells assessed as cell growth inhibition after 72 hrs by MTT assay. In kind it is functional, cell-based. (Tetrazolium dyes change colour on reduction, which living cells bring about.)
A further assay has as its system A549. Description: Cytotoxicity against human A549 cells assessed as cell growth inhibition after 72 hrs by MTT assay. In kind it is functional, cell-based. The following applies: A549, 72 h.
The subject of the next assay is HepG2. Description: Cytotoxicity against human HepG2 cells assessed as cell growth inhibition after 72 hrs by MTT assay. To be noted: HepG2, 72 h. In kind it is functional, cell-based.
The next assay concerns Staphylococcus aureus. Put plainly: Antibacterial activity against Staphylococcus aureus. In kind it is functional, organism-based.

The results in this text go back to ChEMBL document CHEMBL3608228, “Bisacremines A-D, Dimeric Acremines Produced by a Soil-Derived Acremonium persicinum Strain” (J Nat Prod, 2015).

Calls of active or inactive are those of the source. The calls are words filed in the database; no cut-off is given here.

As to `Cc1ccc(/C=C/[C@]2(C)CC[C@@](C)(/C=C/C3=C[C@H](O)[C@](C)(O)C[C@@H]3O)O2)cc1`, the IC50 (commonly the concentration that inhibits the measured activity by half) in the assay on HeLa was 10.7 µM; with A549, > 50 µM; in the assay with HepG2 it was > 50 µM. Also, the result in the assay on Staphylococcus aureus was inactive.

With `Cc1ccc(/C=C/[C@@]2(C)CC[C@@](C)(/C=C/C3=C[C@H](O)[C@](C)(O)C[C@@H]3O)O2)cc1`, the IC50 is 31.1 µM in the assay with HeLa, > 50 µM in the assay with A549 and > 50 µM in the assay with HepG2. The outcome in the assay on Staphylococcus aureus was inactive.

For the molecule `Cc1ccc(/C=C/[C@]2(C)CC[C@](C)(/C=C/C3=C[C@H](O)[C@](C)(O)C[C@@H]3O)O2)cc1`, the IC50 with HeLa is 46.1 µM; with A549, > 50 µM; in the assay with HepG2, > 50 µM. Also, the outcome with Staphylococcus aureus was inactive.

For the molecule `Cc1ccc(/C=C/[C@@]2(C)CC[C@](C)(/C=C/C3=C[C@H](O)[C@](C)(O)C[C@@H]3O)O2)cc1`, the IC50 with HeLa was determined as 9.3 µM; in the assay on A549, 41.3 µM; in the assay with HepG2, 31.1 µM. The result in the assay on Staphylococcus aureus was inactive.
